Source: patent US7413729B2, “Sialic acid permease system” (priority 2005, dated 2008)

Legend:
[1] = molecular target: siaT (Haemophilus influenzae, UniProt P44542); experiment: Biacore analysis of Neu5Ac binding to siaT; parameters: species or system H. influenzae; details: for binding to siaT: concentrations as high as 200 mM; for binding to siaP (summary statement): restates the Example 3 binding studies
Description: In one embodiment, one can use the Biacore® screening method for molecules that bind to SiaT. Briefly, one uses a Biacore® instrument to measure bimolecular binding, establish a high throughput system to search for molecules which bind to SiaT or SiaP. SiaT expressing a His tag is bound to a sensor NTA chip in the Biacore® instrument. The Biacore® instrument measures binding events on the sensor chip surface, so that the interactant attached to the surface determines the specificity of the analysis. Testing the specificity of an interaction involves simply asking whether different molecules can bind to the immobilized interactant. Binding gives an immediate change in the SPR signal, so that it is directly apparent whether an interaction takes place or not. As sample is passed over the sensor surface, the progress of binding directly reflects the rate at which the interaction occurs. Injection of sample is followed by buffer flow during which the response reflects the rate of dissociation of the complex on the surface. Kinetic rate constants for the binding and dissociation can be obtained by fitting the results to mathematical descriptions of interaction models. Binding affinities can be obtained either from rate constant measurements (the dissociation constant KD is the ratio of the rate constants kd/ka for a 1:1 interaction) or by measuring the steady state level of binding as a function of sample concentration. The rate of binding of an interactant to a given surface is a function of the interactant concentration, so that measurements with the Biacore® instrument can be used to determine concentration of a specific substance in pure solution or in complex mixtures. The selectivity, dynamic range and other assay performance characteristics are determined largely by the choice of binding molecule attached to the surface. Thus, one can rapidly screen large number of candidate molecules for binding to the SiaT and develop information about rate of binding and dissociation constants. Molecules that have a high binding affinity and dissociate poorly are examined as candidates for study of inhibition of ^3H-sialic acid uptake by nontypeable H. influenzae.
The inventors performed Biacore® analysis of Neu5Ac binding to siaT (FIG. 19). […] Binding peaked at 22 mM and calculations estimated the kD of siaT for Neu5Ac to be 1.7×10^−8.

[2] = tested on: H. influenzae; details: Goon et al. PNAS 100, 3089-3094; cited from earlier work
[3] = molecular target: T1, SiaP (Haemophilus influenzae, UniProt P44542); experiment: Biacore surface plasmon resonance, sialic acid binding to SiaP on CM5 sensor chip; parameters: species or system H. influenzae; details: for evidence of binding to SiaP: concentrations as high as 100 mM
T1 construct: made in house; host or cells: E. coli (PET15 vector)
T1 sequence (P44542 24-329): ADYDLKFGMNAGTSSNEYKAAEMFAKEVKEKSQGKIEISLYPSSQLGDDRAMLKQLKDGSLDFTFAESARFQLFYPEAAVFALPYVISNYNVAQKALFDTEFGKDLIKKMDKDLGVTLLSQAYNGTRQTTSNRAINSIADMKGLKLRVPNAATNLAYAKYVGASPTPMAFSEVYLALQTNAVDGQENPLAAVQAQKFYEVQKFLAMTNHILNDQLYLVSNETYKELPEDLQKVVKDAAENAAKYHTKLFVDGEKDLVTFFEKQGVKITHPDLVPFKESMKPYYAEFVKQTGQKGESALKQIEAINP
Experimental: Biacore® Analysis: Surface plasmon resonance analysis was performed to measure the affinity of binding of sialic acid to SiaP. These studies were performed on a Biacore® instrument using the CM5 sensor chip. SiaP was bound to the chip and increasing concentrations of sialic acid were introduced into the instrument. […] Increasing concentration of sialic acid up to 50 mM show minimal increase in binding. Based on the calculations from this analysis, an association constant of 1.7×10^7 M was calculated.

[4] = tested on: nontypeable Haemophilus influenzae; details: sialic acid 10 uM in plates, inhibitor 0.01-10 μM
Experimental: Assay: Sialic acid 10 uM was incorporated into Brain Heart Infusion plates containing NAD and Hemin. The inhibitor was also added at 0.01 μM, 0.1 μM, 1 μM and 10 μM concentrations. Control plates were simultaneously prepared which lacked inhibitor. Results obtained from these plates represented the 100% sialic acid incorporation The inhibition assay was performed by plating 10^7 nontypeable Haemophilus influenzae onto each plate and allowed them to grow overnight in 5% CO2 at 37° C. After 16 hours, organisms were collected from the plate and separately diluted in distilled water to a density of 0.1 absorbance at 600 nm.
Analysis: These organisms were analyzed for sialic acid incorporation onto the surface of the organism. To accomplish this, one hundred microliters was placed in a microtiter well and allowed to dry overnight in a 37° C. dry incubator. The next day the plates were washed in a microtiter washer and 100 microliters of antibody 3F11 in TBS Tween-20 was placed in each well. Monoclonal antibody 3F11 binds the lactosamine epitope to which the sialic acid is attached. If sialic acid is present, 3F11 will not bind. If sialic acid is absent, 3F11 binds. The plates were then allowed to set at 37° C. in a moist chamber for two hours. The plates were washed and 100 microliters of a mouse anti-IgM phosphatase conjugate was added to each well. The plates was allowed to set in a 37° C. incubator for one hour. The plate was washed, and 100 microliters p-nitrophenol-phosphate was added to each well. The plate was allowed to set for 1 hour and the color reaction was read in a microtiter plate reader at an absorbance of 405 nm.

[5] = tested on: influenza A neuraminidase; details: literature statement; cited from earlier work
[6] = tested on: H. influenzae; experiment: Inhibition of sialylation of LOS; type: cell-based; details: found by the inventors
[7] = molecular target: T1, SiaP; experiment: Binding of 3H-labelled sialic acid to SiaP-Sepharose conjugate; parameters: species or system H. influenzae; details: LuxS-Sepharose and Sepharose-only controls
Experimental: SiaP binds sialic acid. SiaP was overexpressed in a PET15 vector and purified to homogeneity from E. coli. It was then crosslinked to Sepharose® beads and the ability of the SiaP-Sepharose® conjugate to bind sialic acid was assessed using ^3H-labelled sialic acid. […] Non-specific binding was not observed in this system as evidenced by the LuxS-Sepharose® and Sepharose®-only controls (FIG. 26).

[8] = molecular target: His-tagged siaP (Haemophilus influenzae, UniProt P44542); experiment: Binding of 3H-Neu5Ac to His-tagged siaP bound to a nickel affinity resin; parameters: species or system H. influenzae; details: three experiments; controls His-tagged luxS resin and resin without protein
Chain of His-tagged siaP (P44542 24-329): as above
Description: The inventors also determined whether ^3H-Neu5Ac would bind to His-tagged siaP bound to a nickel affinity resin. […] Two controls are included, the His-tagged luxS protein bound to a nickel affinity resin and nickel affinity with no protein bound to it.

[9] = molecular target: T1, SiaP; experiment: Isothermal titration calorimetry of SiaP with sialic acid; type: binding, H. influenzae; details: ITC
Experimental: Calorimetry and Dynamic Light Scattering. Isothermal titration calorimetry (ITC) experiments were performed in order to determine the binding affinity of SiaP for sialic acid. […] Dynamic light scattering (DLS) experiments were performed to determine the hydrodynamic radius of SiaP with and without sialic acid. […] This was verified by two types of experiments. In the first experiment, excess sialic acid was incubated with SiaP for several hours before DLS experiments were performed. In the second, DLS was performed on protein taken from the calorimeter following an ITC experiment.

Chain of siaT (P44542 24-329): as above

O=C[C@H](O)[C@@H](O)[C@H](O)CO [xylose]
binding to siaT ([1]; Biacore): no binding
binding to siaP (summary statement) [1]: failed to bind

CCCCCCCC(=O)N[C@H]1C([C@H](O)[C@H](O)CO)OC(O)(C(=O)O)C[C@H]1O (stereo partly drawn) [SiaOct]
inhibition of LOS sialylation [2]: inhibitor of LOS sialylation

CC(=O)N[C@H]1C(O)O[C@H](CO)[C@@H](O)[C@@H]1O (stereo partly drawn) [N-acetylglucosamine]
evidence of binding to SiaP [3]: no evidence of binding

N[C@H]1C(O)O[C@H](CO)[C@@H](O)[C@@H]1O (stereo partly drawn) [glucosamine]
evidence of binding to SiaP [3]: no evidence of binding

CCOC(=O)C1=C[C@@H](OC(CC)CC)[C@H](NC(C)=O)[C@@H](N)C1 [Tamiflu]
effect on Neu5Ac incorporation into H. influenzae [4]: did not have any effect
inhibition of influenza A neuraminidase [5]: potent and specific inhibitors

CC(=O)N[C@H]1[C@H]([C@H](O)[C@H](O)CO)OC(O)(C(=O)O)C(F)[C@@H]1O (stereo partly drawn) [3-fluorosialic acid, 3-fluoro-N-acetylneuraminic acid]
reduction of sialic acid uptake ([4]; NTHi strain 2019, versus no inhibitor): 60%
inhibition of sialylation of LOS [6]: highly effective
inhibition of influenza A neuraminidase [5]: potent and specific inhibitors

O=C[C@H](O)[C@@H](O)[C@@H](O)[C@H](O)CO [galactose]
evidence of binding to SiaP [3]: no evidence of binding
binding to siaT ([1]; Biacore): no binding
binding to siaP (summary statement) [1]: failed to bind

CC(=O)N[C@H]1[C@H]([C@H](O)[C@H](O)CO)OC(C(=O)O)=C[C@@H]1O [DDNA, N-acetyl-2,3-didehydro-2-deoxyneuraminic acid]
inhibition of influenza A neuraminidase [5]: potent and specific inhibitors

CC(=O)N[C@H]1[C@H]([C@H](O)[C@H](O)CO)OC(O)(C(=O)O)C[C@@H]1O (stereo partly drawn) [Neu5Ac, N-acetylneuraminic acid]
binding of sialic acid by SiaP-Sepharose [7]: capable of binding sialic acid
binding of 3H-Neu5Ac to resin-bound protein [8]: bound only to the resin to which siaT was bound
sialic acid concentration up to which association with SiaP increased ([3]; up to 50 mM minimal further increase): 20 mM
Neu5Ac concentration at which binding peaked ([1]; Biacore, Neu5Ac 10 to 50 mM): 22 mM
Kd ([1]; Biacore, Neu5Ac 10 to 50 mM, estimated by calculation): 17 nM
binding to siaP (summary statement) [1]: extremely high affinity
n value calculated from the binding data [9]: always less than one
Kd ([9]; three independent experiments): 130 nM

CC(=O)N[C@H]1[C@H]([C@H](O)[C@H](O)CO)OC(C(=O)O)=C[C@@H]1N=C(N)N [Relenza]
effect on Neu5Ac incorporation into H. influenzae [4]: did not have any effect
inhibition of influenza A neuraminidase [5]: potent and specific inhibitors

CC(=O)N[C@@H]1C(O)O[C@H](CO)[C@@H](O)[C@@H]1O (stereo partly drawn) [N-acetylmannosamine]
evidence of binding to SiaP [3]: no evidence of binding
binding to siaT ([1]; Biacore): no binding
binding to siaP (summary statement) [1]: failed to bind

CC(=O)N[C@H]1[C@H]([C@H](O)[C@H](O)CO)O[C@@](Oc2ccc3c(C)cc(=O)oc3c2)(C(=O)[O-])C[C@@H]1O.O.[Na+] [2′-(4-Methylumbelliferyl)-α-D-N-acetylneuraminic acid sodium salt hydrate]
effect on Neu5Ac incorporation into H. influenzae [4]: did not have any effect

O=C(CO)[C@@H](O)[C@H](O)[C@H](O)CO [fructose]
binding to siaT ([1]; Biacore): no binding

C[C@H](O)[C@@H](O)[C@@H](O)[C@H](O)C=O [fucose]
binding to siaP (summary statement) [1]: failed to bind
